In test [1] the target is Melanocyte-stimulating hormone receptor (Mus musculus, UniProt Q01727). The experiment in a line: Displacement of [125I]NDP-MSH from MC1 receptor in mouse B16 cells. It counts as cell-based. In general terms: Displacement assays read how much labelled ligand stays bound in the presence of the test substance.
The target in a further test is Melanocortin receptor 3 (Homo sapiens, UniProt P41968). The experiment in a line: Displacement of [125I]NDP-MSH from human recombinant MC3 receptor expressed in Sf9 cells.
A further test addresses Melanocortin receptor 4 (Homo sapiens, UniProt P32245). The experiment in a line: Displacement of [125I]NDP-MSH from human recombinant MC4 receptor expressed in Sf9 cells.
A further test deals with Melanocortin receptor 5 (Homo sapiens, UniProt P33032). The experiment in a line: Displacement of [125I]NDP-MSH from human recombinant MC5 receptor expressed in Sf9 cells.
Chain of Melanocortin receptor 5 (P33032 whole entry): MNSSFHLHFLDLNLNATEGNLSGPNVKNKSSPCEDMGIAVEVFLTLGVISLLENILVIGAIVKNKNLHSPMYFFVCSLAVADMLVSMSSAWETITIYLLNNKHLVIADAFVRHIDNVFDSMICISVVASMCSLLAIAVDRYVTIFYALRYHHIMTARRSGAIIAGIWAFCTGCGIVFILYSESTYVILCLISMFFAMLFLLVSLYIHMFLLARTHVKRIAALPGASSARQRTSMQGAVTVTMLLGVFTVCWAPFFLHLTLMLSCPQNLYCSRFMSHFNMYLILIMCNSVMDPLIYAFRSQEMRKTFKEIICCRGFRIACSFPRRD

Chain of Melanocortin receptor 3 (P41968 whole entry): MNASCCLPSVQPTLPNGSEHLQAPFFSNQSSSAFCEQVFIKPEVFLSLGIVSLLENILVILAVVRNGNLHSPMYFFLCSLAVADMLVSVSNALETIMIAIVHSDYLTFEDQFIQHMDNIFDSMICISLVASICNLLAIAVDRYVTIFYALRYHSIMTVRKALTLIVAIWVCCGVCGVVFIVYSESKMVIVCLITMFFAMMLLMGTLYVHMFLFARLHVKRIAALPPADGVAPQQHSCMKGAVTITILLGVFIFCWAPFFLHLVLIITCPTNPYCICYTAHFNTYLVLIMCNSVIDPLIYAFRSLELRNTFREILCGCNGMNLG
Chain of Melanocortin receptor 4 (P32245 whole entry): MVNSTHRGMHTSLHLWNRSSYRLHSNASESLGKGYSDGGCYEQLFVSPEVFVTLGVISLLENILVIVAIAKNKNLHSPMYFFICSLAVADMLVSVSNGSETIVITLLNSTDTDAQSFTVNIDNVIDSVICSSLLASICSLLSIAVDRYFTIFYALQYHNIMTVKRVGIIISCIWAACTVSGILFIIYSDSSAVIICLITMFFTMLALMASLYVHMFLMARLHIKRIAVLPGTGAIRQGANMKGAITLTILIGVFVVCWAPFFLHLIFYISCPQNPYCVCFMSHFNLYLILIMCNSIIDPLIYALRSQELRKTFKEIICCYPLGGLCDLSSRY
Chain of Melanocyte-stimulating hormone receptor (Q01727 whole entry): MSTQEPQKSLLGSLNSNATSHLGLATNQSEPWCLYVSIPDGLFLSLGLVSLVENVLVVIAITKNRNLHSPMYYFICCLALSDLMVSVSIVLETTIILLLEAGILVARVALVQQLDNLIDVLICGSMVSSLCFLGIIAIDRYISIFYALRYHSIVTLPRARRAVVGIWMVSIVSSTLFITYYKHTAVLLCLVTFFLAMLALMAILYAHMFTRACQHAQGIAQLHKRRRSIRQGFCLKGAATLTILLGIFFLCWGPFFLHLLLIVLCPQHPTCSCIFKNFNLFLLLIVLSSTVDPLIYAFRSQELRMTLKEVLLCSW

The Ki is a dissociation constant, usually derived from enzyme kinetics or from competition with a known ligand. Regarding `CSc1ccc(CN(C(=O)CCCc2c(Cc3ccc(O)cc3)[nH]c3ccccc23)C2CCC(CC3CCC(N)CC3)CC2)cc1` (stereo not given), the Ki came to 17 µM in test [1], 201 µM at Melanocortin receptor 3, 4.5 µM at Melanocortin receptor 4 and 8.9 µM on Melanocortin receptor 5.
Consider `NCC1CCCC(CN(Cc2ccccc2)C(=O)CCCc2c[nH]c3ccccc23)C1` (stereo not given), for which the Ki amounted to 2.7 µM in test [1], 24 µM at Melanocortin receptor 3, 3.6 µM on Melanocortin receptor 4 and 8.7 µM on Melanocortin receptor 5.
As to `NCCCN(C(=O)/C=C/c1c[nH]c2ccccc12)C1CCc2ccccc2C1` (stereo not given), the Ki turned out to be 6 µM in test [1], 48 µM at Melanocortin receptor 3, 11 µM at Melanocortin receptor 4 and 12 µM at Melanocortin receptor 5.
Regarding `CC1CC(CC2CCC(N(Cc3ccccc3)C(=O)CCCc3c[nH]c4ccccc34)C(C)C2)CCC1N` (stereo in doubt; form 3), the Ki came out at 1.7 µM in test [1], 6.6 µM on Melanocortin receptor 3, 3.7 µM on Melanocortin receptor 4 and 6.9 µM at Melanocortin receptor 5.
For `NCC1CCC(CN(C/C(Cl)=C/c2ccccc2)C(=O)CCCc2c[nH]c3ccccc23)CC1` (stereo not given), the Ki in test [1] came to 1.6 µM; at Melanocortin receptor 3, 33 µM; on Melanocortin receptor 4, 2.5 µM; on Melanocortin receptor 5, 11 µM.
In the same order, the values of `NCCCN(C/C=C/c1ccccc1)C(=O)Cc1ccc2ccccc2c1` are 2.5 µM, 33 µM, 6.4 µM and 10 µM.
The corresponding values for `COc1ccc(CN(C(=O)CCCc2c[nH]c3ccccc23)C2CCC(CC3CCC(N)CC3)CC2)cc1OC` (stereo not given) are 3.2 µM, 22 µM, 3.7 µM and 8.3 µM.
In the case of `NC1CCC(CC2CCC(N(C/C(Cl)=C/c3ccccc3)C(=O)CCCc3c[nH]c4ccccc34)CC2)CC1` (stereo in doubt; form 3), the Ki was found to be 2.3 µM in test [1], 33 µM at Melanocortin receptor 3, 5.2 µM on Melanocortin receptor 4 and 5.4 µM at Melanocortin receptor 5.
With `Cc1cccc(CN(C(=O)CCCc2c[nH]c3ccccc23)C2CCC(CC3CCC(N)CC3)CC2)c1` (stereo not given), the Ki in test [1] was 1.3 µM; on Melanocortin receptor 3 it was 22 µM; at Melanocortin receptor 4, 3 µM; on Melanocortin receptor 5, 12 µM.
In the same order, the values of `NCCCCN(C/C=C/c1ccccc1)C(=O)CCc1c[nH]c2ccccc12` are 8.3 µM, 67 µM, 18 µM and 10 µM.
For `NCCN(C/C=C/c1ccccc1)C(=O)CCc1c[nH]c2ccccc12`, the Ki in test [1] was determined as 17 µM; on Melanocortin receptor 3 it was 51 µM; on Melanocortin receptor 4, 106 µM; at Melanocortin receptor 5, 13 µM.
The corresponding values for `NCCCCCN(C/C=C\c1ccccc1)C(=O)CCc1c(Cc2ccc(O)cc2)[nH]c2ccccc12` are 3.3 µM, 27 µM, 7.1 µM and 6.7 µM.
For `NC1CCC(CC2CCC(N(Cc3c(F)cccc3F)C(=O)CCCc3c(Cc4ccc(O)cc4)[nH]c4ccccc34)CC2)CC1` (stereo not given), the Ki in test [1] worked out at 2.1 µM; on Melanocortin receptor 3, 65 µM; at Melanocortin receptor 4 it was 3 µM; at Melanocortin receptor 5 it was 21 µM.
`NC1CCCC(NC(=O)NC2CCCC(N(Cc3ccccc3)C(=O)CCCc3c(Cc4ccc(O)cc4)[nH]c4ccccc34)C2)C1` (stereo not given): the Ki in test [1] is 2.9 µM; at Melanocortin receptor 3, 25 µM; on Melanocortin receptor 4, 6.5 µM; at Melanocortin receptor 5 it was 23 µM.
For the compound `NCCCCCN(Cc1ccccc1)C(=O)[C@@H](N)Cc1ccc2ccccc2c1`, the Ki in test [1] stood at 10 µM; at Melanocortin receptor 3, 39 µM; on Melanocortin receptor 4, 21 µM; at Melanocortin receptor 5, 34 µM.
Regarding `Cc1ccccc1CN(C(=O)CCCc1c[nH]c2ccccc12)C1CCC(CC2CCC(N)CC2)CC1` (stereo not given), the Ki in test [1] came to 1.2 µM; on Melanocortin receptor 3 it was 121 µM; at Melanocortin receptor 4, 2.3 µM; at Melanocortin receptor 5, 15 µM.
The corresponding values for `NC1CCC(CC2CCC(N(Cc3ccncc3)C(=O)CCCc3c[nH]c4ccccc34)CC2)CC1` (stereo in doubt; form 2) are 6.3 µM, 172 µM, 5.6 µM and 96 µM.
In the case of `NCCCCCN(CCc1ccc2ccccc2c1)C(=O)Cc1c[nH]c2ccccc12`, the Ki is 4.5 µM in test [1], 13 µM at Melanocortin receptor 3, 9.4 µM on Melanocortin receptor 4 and 8 µM at Melanocortin receptor 5.
In the case of `NC1CCC(CC2CCC(N(C/C(Cl)=C/c3ccccc3)C(=O)CCCc3c[nH]c4ccccc34)CC2)CC1` (stereo in doubt; form 5), the inhibition constant Ki was determined as 0.61 µM in test [1], 21 µM at Melanocortin receptor 3, 6 µM on Melanocortin receptor 4 and 3.2 µM at Melanocortin receptor 5.
On to `COC(=O)c1ccc(CN(C(=O)CCCc2c(Cc3ccc(O)cc3)[nH]c3ccccc23)C2CCC(CC3CCC(N)CC3)CC2)cc1` (stereo not given), for which the Ki was found to be 4.3 µM in test [1], 46 µM on Melanocortin receptor 3, 2.7 µM on Melanocortin receptor 4 and 6.7 µM at Melanocortin receptor 5.
Consider `NCCCCCN(Cc1ccc2ccccc2c1)C(=O)CCc1c[nH]c2ccccc12`, for which the Ki was found to be 14 µM in test [1], 58 µM on Melanocortin receptor 3, 62 µM on Melanocortin receptor 4 and 7.3 µM on Melanocortin receptor 5.
`N=C(N)NCCCCN(Cc1ccc2ccccc2c1)C(=O)Cc1c[nH]c2ccccc12`: the Ki in test [1] was determined as 17 µM; at Melanocortin receptor 3, 137 µM; at Melanocortin receptor 4, 182 µM; at Melanocortin receptor 5 it was 16 µM.
For `C=C(Br)CN(C(=O)CCCc1c[nH]c2ccccc12)C1CCC(CC2CCC(N)CC2)CC1` (stereo in doubt; form 2), the Ki stood at 1.4 µM in test [1], 29 µM on Melanocortin receptor 3, 5.5 µM at Melanocortin receptor 4 and 9.4 µM on Melanocortin receptor 5.
Consider `C/C(=C\c1ccccc1)CN(CCCN)C(=O)CCCc1cccs1`, for which the Ki in test [1] stood at 6.8 µM; at Melanocortin receptor 3 it was 63 µM; on Melanocortin receptor 4 it was 14 µM; at Melanocortin receptor 5, 91 µM.
The corresponding values for `NCCCCCN(Cc1ccccc1)C(=O)CCCc1c[nH]c2ccccc12` are 3.2 µM, 15 µM, 6.4 µM and 4.6 µM.
Consider `NCCCCCCN(Cc1ccccc1)C(=O)CCCc1c[nH]c2ccccc12`, for which the inhibitory constant (Ki) in test [1] worked out at 13 µM; on Melanocortin receptor 3, 43 µM; on Melanocortin receptor 4, 3.4 µM; at Melanocortin receptor 5, 3.8 µM.
As for `N=C(N)NC1CCC(CC2CCC(N(C/C(Cl)=C/c3ccccc3)C(=O)CCCc3c[nH]c4ccccc34)CC2)CC1` (stereo in doubt; form 2), the Ki in test [1] is 2.7 µM; at Melanocortin receptor 3 it was 13 µM; on Melanocortin receptor 4 it was 3.4 µM; at Melanocortin receptor 5 it was 27 µM.
Regarding `NCCCCCN(Cc1ccccc1)C(=O)[C@H](N)Cc1ccc2ccccc2c1`, the Ki in test [1] is 5 µM; on Melanocortin receptor 3 it was 41 µM; on Melanocortin receptor 4 it was 13 µM; at Melanocortin receptor 5 it was 24 µM.
In the same order, the values of `C/C(=C\c1ccccc1)CN(CCCN)C(=O)Cc1c[nH]c2ccccc12` are 9.3 µM, 44 µM, 67 µM and 89 µM.
Regarding `C=C(Br)CN(C(=O)CCCc1c[nH]c2ccccc12)C1CCC(CC2CCC(N)CC2)CC1` (stereo in doubt; form 4), the Ki in test [1] is 0.81 µM; on Melanocortin receptor 3, 27 µM; on Melanocortin receptor 4, 3.8 µM; at Melanocortin receptor 5, 5.5 µM.

(Values after ChEMBL document CHEMBL1149662, “Design and synthesis of a library of tertiary amides: evaluation as mimetics of the melanocortins' active core” (Bioorg Med Chem, 2007).)
